Experimental data reported in patent US11000033B2, “Ketone or oxime compound, and herbicide” (NISSAN CHEMICAL CORPORATION, priority 2014, dated 2021).

Columns and labels:
Type in all cases: in vivo
[1] = test system: Scirpus juncoides; experiment: Test Example 2: herbicidal activity, application during weed generation in submerged conditions (symbol B); settings: Table 23; application herbicide amount 320 g/ha; grade 0-5 by criteria of Test Example 1
How it was run: (§1)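 Flooded-soil post-emergence test: emulsion of compound, water-diluted to target rate, applied to paddy water surface at 1–2 leaf stage of mixed-sown weeds (alluvial soil, 4 cm water, 25–30° C. greenhouse); visual rating 3 weeks after application.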

[2] = test system: Scirpus juncoides; experiment: Test Example 1: herbicidal activity, application before weed generation in submerged conditions (symbol B); settings: application herbicide amount 320 g/ha
How it was run: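 Weeds are sown into submerged alluvial soil alongside transplanted 2.5-leaf rice, and the compound, as an emulsion diluted to a set rate, is applied onto the water before emergence. Rating on the 0–5 herbicidal-ratio scale follows 3 weeks of greenhouse growth at 25–30 °C.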

[3] = test system: wheat; experiment: Test Example 5: effect on crop by foliage application, plastic box (symbol e); settings: 320 g/ha, 3 weeks after application
How it was run: (§2)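 Diluvial soil, sterilized and boxed (21 × 13 × 7 cm), received spot-sown seed covered by about 1.5 cm soil; plants were then greenhouse-grown at 25–30° C.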

[4] = test system: Stellaria media; experiment: Test Example 4: herbicidal effect by soil treatment (symbol P); settings: application herbicide amount 320 g/ha
How it was run: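 Seeds were sown in sterilized diluvial soil, covered with about 1.5 cm of soil, and the soil surface was sprayed with a water-diluted emulsion of the compound at a predetermined rate. Plants grew in a greenhouse at 25° C. to 30° C.; effects were scored visually 3 weeks after application.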

[5] = test system: Veronica persica; experiment: Test Example 5: herbicidal effect by foliage application, plastic box (symbol R); settings: 320 g/ha, 3 weeks after application
How it was run: (§3)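 Sowing in sterilized diluvial soil, 14 days' greenhouse growth at 25° C. to 30° C., then uniform small-sprayer foliar application of aqueous emulsion dilution; plants scored three weeks afterwards.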

[6] = test system: Amaranthus retroflexus; experiment: Test Example 5: herbicidal effect by foliage application, plastic box (symbol N); settings: 320 g/ha, 3 weeks after application
How it was run: as §3

[7] = test system: rice plant; experiment: Test Example 5: effect on crop by foliage application, plastic box (symbol b); settings: 320 g/ha, 3 weeks after application
How it was run: as §2

[8] = test system: Echinochloa oryzacola Vasing.; experiment: Test Example 2: herbicidal activity, application during weed generation in submerged conditions (symbol A); settings: Table 23; application herbicide amount 320 g/ha; grade 0-5 by criteria of Test Example 1
How it was run: as §1

[9] = test system: corn; experiment: Test Example 4: effect on crop by soil treatment (symbol c); settings: application herbicide amount 320 g/ha
How it was run: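 The test used sterilized diluvial soil. Seed was set down in spots and overlaid with about 1.5 cm of soil before growth in a greenhouse kept at 25° C. to 30° C.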

[10] = test system: Cyperus difformis; experiment: Test Example 3: herbicidal effect by foliage application, Wagner pot (symbol E); settings: application herbicide amount 320 g/ha
How it was run: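 Rating at 3 weeks post-spray, by defined criteria. Treatment: emulsion diluted with water to a predetermined amount, applied evenly to foliage of 14-day-old plants raised in alluvial soil flooded 0.1–0.5 cm deep at 25–30 °C, rice co-sown.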

[11] = test system: Galium spurium; experiment: Test Example 5: herbicidal effect by foliage application, plastic box (symbol Q); settings: 320 g/ha, 3 weeks after application
How it was run: as §3

[12] = test system: soybean; experiment: Test Example 5: effect on crop by foliage application, plastic box (symbol d); settings: 320 g/ha, 3 weeks after application
How it was run: as §2

SMILES | Herbicidal effect grade, B: Scirpus juncoides [1] | Herbicidal effect grade, B: Scirpus juncoides [2] | e: wheat, effect on crop (criteria of Test Example 1) [3] | P: Stellaria media, herbicidal effect grade [4] | R: Veronica persica, herbicidal effect (criteria of Test Example 1) [5] | N: Amaranthus retroflexus, herbicidal effect (criteria of Test Example 1) [6] | b: directly sowed rice plant, effect on crop (criteria of Test Example 1) [7] | Herbicidal effect grade, A: Echinochloa oryzacola Vasing. [8] | c: corn, effect on crop grade [9] | herbicidal effect on E, grade 0-5 [10] | Q: Galium spurium, herbicidal effect (criteria of Test Example 1) [11] | d: soybean, effect on crop (criteria of Test Example 1) [12] | Herbicidal effect grade, P: Stellaria media [4] | Effect on crop grade, c: corn [9] | e: wheat, effect on crop grade [3] | R: Veronica persica, herbicidal effect grade [5] | N: Amaranthus retroflexus, herbicidal effect grade [6] | b: directly sowed rice plant, effect on crop grade [7] | Q: Galium spurium, herbicidal effect grade [11] | d: soybean, effect on crop grade [12]
CON=C(C)CC1CC(O)=C(c2c(C)cc(C(C)=NOC)cc2C)C1=O (stereo not drawn) [6-065] | 1 (Herbicidal ratio of 5% or higher and lower than 20%) | 2 (Herbicidal ratio of 20% or higher and lower than 40%) | 5 (Herbicidal ratio of 90% or more (almost completely withered)) | 4 (Herbicidal ratio of 70% or higher and lower than 90%) | 3 (Herbicidal ratio of 40% or higher and lower than 70%) | 0 (Herbicidal ratio of 5% or lower (almost no effect)) | 5 (Herbicidal ratio of 90% or more (almost completely withered)) | 5 (Herbicidal ratio of 90% or more (almost completely withered)) | 5 (Herbicidal ratio of 90% or more (almost completely withered)) | 5 (Herbicidal ratio of 90% or more (almost completely withered)) | 3 (Herbicidal ratio of 40% or higher and lower than 70%) | 1 (Herbicidal ratio of 5% or higher and lower than 20%) |  |  |  |  |  |  |  | 
CON=C(C)CC1CC(OC(=O)COc2ccccc2)=C(c2c(C)cc(C)cc2OC)C1=O (stereo not drawn) [6-091] | 5 (Herbicidal ratio of 90% or more (almost completely withered)) | 5 (Herbicidal ratio of 90% or more (almost completely withered)) | 5 (Herbicidal ratio of 90% or more (almost completely withered)) |  | 4 (Herbicidal ratio of 70% or higher and lower than 90%) | 2 (Herbicidal ratio of 20% or higher and lower than 40%) | 5 (Herbicidal ratio of 90% or more (almost completely withered)) | 5 (Herbicidal ratio of 90% or more (almost completely withered)) |  | 5 (Herbicidal ratio of 90% or more (almost completely withered)) | 3 (Herbicidal ratio of 40% or higher and lower than 70%) | 4 (Herbicidal ratio of 70% or higher and lower than 90%) | 4 (Herbicidal ratio of 70% or higher and lower than 90%) | 5 (Herbicidal ratio of 90% or more (almost completely withered)) |  |  |  |  |  | 
COc1ccc(-c2cc(C)c(C3=C(O)CC(CC(C)=O)C3=O)c(C)c2)cc1 (stereo not drawn) [7-006] | 0 (Herbicidal ratio of 5% or lower (almost no effect)) | 0 (Herbicidal ratio of 5% or lower (almost no effect)) | 0 (Herbicidal ratio of 5% or lower (almost no effect)) |  | 0 (Herbicidal ratio of 5% or lower (almost no effect)) | 0 (Herbicidal ratio of 5% or lower (almost no effect)) | 5 (Herbicidal ratio of 90% or more (almost completely withered)) | 2 (Herbicidal ratio of 20% or higher and lower than 40%) |  | 0 (Herbicidal ratio of 5% or lower (almost no effect)) | 0 (Herbicidal ratio of 5% or lower (almost no effect)) | 0 (Herbicidal ratio of 5% or lower (almost no effect)) | 0 (Herbicidal ratio of 5% or lower (almost no effect)) | 0 (Herbicidal ratio of 5% or lower (almost no effect)) |  |  |  |  |  | 
CON=C(C)CC1CC(O)=C(c2c(C)cc(OC)cc2C)C1=O (stereo not drawn) [6-055] | 2 (Herbicidal ratio of 20% or higher and lower than 40%) | 1 (Herbicidal ratio of 5% or higher and lower than 20%) | 3 (Herbicidal ratio of 40% or higher and lower than 70%) | 0 (Herbicidal ratio of 5% or lower (almost no effect)) | 4 (Herbicidal ratio of 70% or higher and lower than 90%) | 0 (Herbicidal ratio of 5% or lower (almost no effect)) | 5 (Herbicidal ratio of 90% or more (almost completely withered)) | 5 (Herbicidal ratio of 90% or more (almost completely withered)) | 5 (Herbicidal ratio of 90% or more (almost completely withered)) | 5 (Herbicidal ratio of 90% or more (almost completely withered)) | 3 (Herbicidal ratio of 40% or higher and lower than 70%) | 3 (Herbicidal ratio of 40% or higher and lower than 70%) |  |  |  |  |  |  |  | 
CON=C(C)CC1CC(O)=C(c2c(C)cc(C)cc2SC)C1=O (stereo not drawn) [6-075] | 0 (Herbicidal ratio of 5% or lower (almost no effect)) | 1 (Herbicidal ratio of 5% or higher and lower than 20%) | 2 (Herbicidal ratio of 20% or higher and lower than 40%) | 0 (Herbicidal ratio of 5% or lower (almost no effect)) | 0 (Herbicidal ratio of 5% or lower (almost no effect)) | 0 (Herbicidal ratio of 5% or lower (almost no effect)) | 4 (Herbicidal ratio of 70% or higher and lower than 90%) | 1 (Herbicidal ratio of 5% or higher and lower than 20%) | 0 (Herbicidal ratio of 5% or lower (almost no effect)) | 3 (Herbicidal ratio of 40% or higher and lower than 70%) | 0 (Herbicidal ratio of 5% or lower (almost no effect)) | 0 (Herbicidal ratio of 5% or lower (almost no effect)) |  |  |  |  |  |  |  | 
CON=C(C)CC1CC(O)=C(c2c(C)cc(C3CC3)cc2C)C1=O (stereo not drawn) [6-050] | 0 (Herbicidal ratio of 5% or lower (almost no effect)) | 1 (Herbicidal ratio of 5% or higher and lower than 20%) |  | 3 (Herbicidal ratio of 40% or higher and lower than 70%) |  |  |  | 3 (Herbicidal ratio of 40% or higher and lower than 70%) | 1 (Herbicidal ratio of 5% or higher and lower than 20%) | 5 (Herbicidal ratio of 90% or more (almost completely withered)) |  |  |  |  | 0 (Herbicidal ratio of 5% or lower (almost no effect)) | 2 (Herbicidal ratio of 20% or higher and lower than 40%) | 0 (Herbicidal ratio of 5% or lower (almost no effect)) | 5 (Herbicidal ratio of 90% or more (almost completely withered)) | 3 (Herbicidal ratio of 40% or higher and lower than 70%) | 0 (Herbicidal ratio of 5% or lower (almost no effect))
